According to publication PMC7694037, “Quinolizidine-Derived Lucanthone and Amitriptyline Analogues Endowed with Potent Antileishmanial Activity” (Pharmaceuticals, 2020):
Converted amounts (≈) assume the structure as drawn. Read-outs that look alike come from different tables or passages of the source.

Tests used:
[1] = test system: L. donovani; set-up: method as in PMID 21358812; details: ex vivo splenic explant model system; read-out: IC50 against L. donovani; cited from earlier work
[2] = test system: choline uptake into rat brain synaptosomes; set-up: method as in PMID 6124978; details: 1 µM concentration; cited from earlier work
[3] = test system: Leishmania tropica promastigotes; experiment: Antileishmanial activity against L. tropica promastigotes (MTT assay); details: for IC50: 72 h, IC50 ± SD; for Ratio IC50 Miltef./IC50 Compd. (L. tropica): ratio between IC50 of miltefosine and that of each compound, L. tropica promastigotes
Protocol: (§5) Promastigote stage of L. infantum strain MHOM/TN/80/IPT1 (kindly provided by Dr. M. Gramiccia, ISS, Roma) and L. tropica (MHOM/SY/2012/ISS3130) were cultured in RPMI 1640 medium (EuroClone) supplemented with 10% heat-inactivated fetal calf serum (EuroClone, Milan Italy), 20 mM Hepes and 2 mM L-glutamine at 24 °C. […] Compounds were dissolved in DMSO and then diluted with medium to achieve the required concentrations. Drugs were placed in 96 wells round-bottom microplates and seven serial dilutions made. Miltefosine was used as reference anti-Leishmania drug. Parasites were diluted in complete medium to 5 × 10^6 parasites/mL and 100 μL of the suspension was seeded into the plates, incubated at 24 °C for 72 h and then 20 µL of MTT solution (5 mg/mL) was added into each well for 3 h. The plates were then centrifuged, the supernatants were discarded and the resulting pellets were dissolved in 100 µL of lysing buffer consisting of 20% (w/v) of a solution of SDS (Sigma), 40% DMF (Merck, Milan Italy) in H2O. The absorbance was measured spectrophotometrically at a test wavelength of 550 nm and a reference wavelength of 650 nm.

[4] = test system: L. infantum promastigotes; experiment: Antileishmanial activity against L. infantum promastigotes (MTT assay); details: for IC50: Leishmania infantum, 72 h, read-out: IC50 L. infantum; for Ratio IC50 Miltef./IC50 Compd. (L. infantum): ratio between IC50 of miltefosine and that of each compound, L. infantum promastigotes
Protocol: as §5

[5] = test system: rat skeletal myoblast cells (L6); experiment: Cytotoxicity on rat skeletal myoblast cells (L6); format: cell-based
[6] = test system: rat skeletal myoblast cells (L6); details: cited from earlier work
[7] = i.p., doses up to 200–350 mg/kg, once a day for five consecutive days, mice inoculated with leukemia P388 cells; cited from earlier work
[8] = Cytotoxicity against Vero-76 cells (crystal violet staining); format: cell-based, Cercopithecus Aethiops; details: Cercopithecus aethiops (African green monkey); Vero-76 monolayers; CC50 ± SD; read-out: CC50 Vero-76
Protocol: (§1) The cytotoxicity of lucanthone was also tested for comparison. […] The relevant selectivity index (SI)—a parameter that quantifies the preferential antileishmanial activity of a compound in relation to mammalian cell toxicity (CC50/IC50)—is tabulated in Table 2. […] The replacement of the 4-methyl substituent with an amino group in compound 14, while preserving good antileishmanial activity, led to a further substantial decrease of cytotoxicity, with a resultantly safer profile (SI = 16.2 and 16.9 for the two Leishmania species).
(§2) Vero-76 cells (ATCC CRL 1587 Cercopithecus Aethiops) were seeded at an initial density of 4 × 10^5 cells/mL in 24-well plates, in culture medium (Dulbecco’s modified eagle’s medium (D-MEM) with L-glutamine, supplemented with fetal bovine serum (FBS), 0.025 g/L kanamycin). Cell cultures were then incubated at 37 °C in a humidified, 5% CO2 atmosphere in the absence or presence of serial dilutions of test compounds. Cell viability was determined after 48–96 h at 37 °C by the Crystal violet staining method. The results are expressed as CC50, which is the concentration of compound necessary to inhibit cell growth by 50%. Each CC50 value is the mean and standard deviation of at least three separate experiments performed in duplicate.

[9] = test system: Vero-76 cells; experiment: as above; format: cell-based, Cercopithecus Aethiops
Protocol: as §1, §2

[10] = test system: intramacrophagic amastigotes of L. infantum; experiment: Intracellular amastigote susceptibility assay in PMA-differentiated THP-1 macrophages; format: cell-based; details: Leishmania infantum, THP-1, 72 h, read-out: L. infantum Amastigotes IC50
Protocol: Finally, for a better idea of their real value as antileishmanial agents, compounds 14 and 17, displaying the most promising activity against promastigote stage and the highest SI values, together with lucanthone and the corresponding quinolizidine analog 1, were tested against the intramacrophagic amastigote stage of L. infantum.
THP-1 cells (human acute monocytic leukemia) were maintained in RPMI supplemented with 10% FBS (EuroClone), 50 µM 2-mercaptoethanol, 20 mM Hepes and 2 mM glutamine, at 37 °C in 5% CO2. For Leishmania infections, THP-1 cells were plated at 5 × 10^5 cells/mL in 16-chamber Lab-Tek culture slides (Nunc, Milan, Italy) and treated with 0.1 µM phorbol myristate acetate (PMA, Sigma) for 48 h to achieve differentiation into macrophages. Cells were washed and infected with metacyclic L. infantum promastigotes at a macrophage/promastigote ratio of 1/10 for 24 h. Cell monolayers were then washed and incubated in the presence of test compounds for 72 h. Slides were fixed with methanol and stained with Giemsa. The percentages of infected macrophages among treated and non-treated cells were determined by light microscopy.

[11] = Cytotoxicity against PMA-differentiated THP-1 cells (MTT); format: cell-based, human; details: human; PMA-differentiated THP-1; mean ± SD; read-out: THP-1 CC50
Protocol: (§3) The cytotoxic concentration (CC50) against THP-1 differentiated into macrophages (Table 3), used for testing the activity against the amastigote stage, is also reported.
(§4) THP-1 cells were plated at 5 × 10^5 cells/mL in 96 wells flat bottom microplates and treated with 0.1 µM PMA for 48 h to achieve differentiation into macrophages. Cells were then treated with serial dilutions of test compounds and cell proliferation evaluated using the MTT assay described for promastigotes.

[12] = test system: PMA-differentiated THP-1; experiment: as above; format: cell-based, human; details: CC50 THP-1 / IC50 L. infantum amastigotes
Protocol: as §3, §4

[13] = test system: intramacrophagic L. tropica amastigotes; set-up: method as in PMID 6312823; details: cited from earlier work
[14] = set-up: method as in PMID 4954156, PMID 4633870; details: bacteria not specified; cited from earlier work
[15] = test system: AChE; set-up: method as in PMID 3707621, PMID 25924599, PMID 21459491; details: cited from earlier work
[16] = test system: BChE; set-up: method as in PMID 3707621, PMID 25924599, PMID 21459491; details: cited from earlier work
[17] = Leishmania tropica, read-out: IC50 L. tropica, promastigotes, MTT, 72 h

O=c1c2ccccc2sc2c(CO)ccc(CCN3CCCCC3)c12 [1-(piperidinoethyl)-4-hydroxymethylthioxanthen-9-one]
IC50 [1]: 9.1 µM

C(=C1c2ccccc2CCc2ccccc21)[C@@H]1CCCN2CCCC[C@H]12 [Compound 18, lupinylidene dibenzocycloheptadiene]
inhibition of choline uptake into rat brain synaptosomes [2]: inhibit the choline uptake
IC50 [3, 17]: 24.2 ± 3.58 µM
Ratio IC50 Miltef./IC50 Compd. (L. tropica) [3]: 1.8
IC50 [4]: 25.2 ± 1.92 µM
Ratio IC50 Miltef./IC50 Compd. (L. infantum) [4]: 1.24

COc1ccc2sc3c(C)ccc(NCCC4CCCN5CCCCC45)c3c(=O)c2c1 (stereo not drawn) [Compound 6]
selectivity index (SI) L6 vs L. infantum ([5]; CC50 L6 / IC50 L. infantum): ≤ 3
selectivity index (SI) L6 vs L. tropica ([5]; CC50 L6 / IC50 L. tropica): 4.8
CC50 [6]: 137 µM
mortality [7]: no mortality
IC50 [3, 17]: 28.4 ± 14.3 µM
Ratio IC50 Miltef./IC50 Compd. (L. tropica) [3]: 1.5
IC50 [4]: > 46 µM
Ratio IC50 Miltef./IC50 Compd. (L. infantum) [4]: <0.7

CCN(CC)CCNc1ccc(C)c2sc3ccccc3c(=O)c12 [Lucanthone]
CC50 [8]: 12.4 ± 2.1 µM
S.I. L. infantum ([9]; CC50 Vero-76 / IC50 L. infantum promastigotes): 3.5
S.I. L. tropica ([9]; CC50 Vero-76 / IC50 L. tropica promastigotes): 4.8
IC50 [10]: 3.43 ± 0.93 µM
CC50 [11]: 15.2 ± 0.27 µM
SI (THP-1) [12]: 4.4
IC50 against intramacrophagic L. tropica amastigotes [13]: 0.93 µg/mL (≈ 2.73 µM)
IC50 ([13]; converted value in brackets, read-out: IC50 against intramacrophagic L. tropica amastigotes): 2.47 µM
MIC (antibacterial activity) [14]: 30 to 60 µM
IC50 AChE inhibition [15]: low micromolar and sub-micromolar range
IC50 BChE inhibition [16]: low micromolar and sub-micromolar range
IC50 [3, 17]: 2.5 µM
Ratio IC50 Miltef./IC50 Compd. (L. tropica) [3]: 16.8
IC50 ([3]; read-out: IC50 L. tropica, promastigotes, MTT): 2.57 ± 1.03 µM
IC50 [4]: 3.5 ± 1.17 µM
Ratio IC50 Miltef./IC50 Compd. (L. infantum) [4]: 8.9
